The text below walks through data of a melting point compilation (Tetko et al.; mined from patent text by program, amines drawn as free bases though some values may be those of a salt).

Some results are limits rather than exact numbers.

As usually defined, the melting point is the temperature, or range, at which the solid turns liquid.

The molecule `COc1ccccc1C(=O)N1CCN(CC2(C)Cc3c(C)c(N)c(C)c(C)c3O2)CC1` (stereo not drawn) came in with a melting point of 128 to 131 °C.

With `Cn1cc(C2=C(c3cn(C)c4c([N+](=O)[O-])cccc34)C(=O)NC2=O)c2ccc(F)cc21`, the melting point was in the range of 259 to 261 °C. Next, `c1ccc(COc2ccc(-c3nc(COc4cccc(CCCn5ccnc5)c4)co3)cc2)cc1`: 144 to 145 °C; `CSc1nc(C)n(-c2ccc(N)cc2)n1`: 130 to 136 °C. With `CCCCNC(=O)NCCOc1ccc2c(ccn2Cc2ccc(Cl)cc2)c1`, the melting point fell in the range of 163 to 164 °C. For `CCCCc1nc(Cl)c(CC(=O)OCC)c(Cc2ccc(C(=O)OC(C)(C)C)cc2)n1` the value was 65 °C; for `Cc1ccc(S(=O)(=O)NC[C@H](C)NCc2c(Cl)ccc([N+](=O)[O-])c2Cl)cc1`, 85 to 88 °C. Take `O=C1c2ccccc2C(=O)N1CCn1nnc(C(F)(F)F)n1`: the melting point is 98 to 99.5 °C. Next, `O=C1NC(=O)C(Cc2ccc(OCCON=Cc3ccncc3)cc2)S1` (stereo not drawn): 221 °C; `OC(CNC1CC1)COc1ccc(-c2nc(C(F)(F)F)c[nH]2)cc1` (stereo not drawn): 169 to 171 °C; `Cc1ccc(-c2[nH]c3c(Br)cc(Br)cc3c(=O)c2Cc2ccncc2)cc1`: 206 to 208 °C.

`O=C(Oc1ccc(CCN(F)F)cc1)c1ccccc1` returned a melting point of 67 to 67.5 °C.

Turning to `O=C(O)C1(CC#CBr)CCCCC1`, the melting point turned out to be 98 °C. The molecule `Cc1cccc(NC(=O)c2cc(Cl)cc(C)n2)n1` registered a melting point of 130 °C. Next, `CN(C)CCc1c[nH]c2ccc([N+](=O)[O-])cc12`: 132 to 135 °C; `Clc1ccc(-c2coc3ccc(Br)cc23)c(Cl)c1`: 116 to 117 °C.

Consider `NS(=O)(=O)c1ccc(CCI)cc1`, for which the melting point stood at 227 °C. For `Cc1cc(NS(=O)(=O)c2ccccc2)cc(C)c1SC[N+](=O)[O-]`, the melting point fell in the range of 146 to 148 °C. For `Cc1ccccc1C=CCC(CCC(=O)O)(C(=O)C=Cc1ccc(Cl)cc1)c1ccccc1` (stereo not drawn) the value was 60 to 80 °C; for `N#Cc1cccc(CCC(=O)O)c1`, 95 °C; for `CC(C)Oc1ccc(C(=O)n2nc(Nc3ccc(O)cc3)nc2N)cc1`, 229 to 234 °C.

`COc1cc(N)c(Cl)cc1C(=O)NCC1CCN(CCCCCCNC(=O)c2ccccc2)CC1`: the melting point is 159 to 162 °C. `CN(C)CCOC1(O)C=CC2=NC(C(=O)N3CC(CCl)c4c3ccc3ncccc43)=CC2=C1` (stereo not drawn) came in with a melting point of 209 to 215 °C. Next, `C[C@H](COS(C)(=O)=O)N1C(=O)c2ccccc2C1=O`: 75 to 77 °C. Next, `CCC1C(=O)N(CC)CCc2c1ccc(Nc1ncc(Cl)c(Nc3ccccc3C(=O)NC)n1)c2OC` (stereo not drawn): 157 to 158 °C; `CCOC(=O)c1nn(-c2ccccc2)c2c1Cc1ccccc1-2`: 110 to 112 °C. Turning to `CCc1noc(C)c1C(C)=NNc1ccccc1`, the melting point lay within 72 to 75 °C. For `CN(CCCc1ccccc1)[C@H]1CC[C@H](c2ccc([N+](=O)[O-])cc2)CC1` the value was 55 to 56 °C; for `Cc1cc2ccncc2c(=O)c2ccccc12`, 112 to 116 °C; for `CC(C)(Oc1ccc(C(=O)NCc2ccc(Cl)cc2)cc1)C(=O)O`, 180 °C. For `COc1cccc2c1OC(CN1CC=C(c3c[nH]c4ccc(C#N)cc34)CC1)CO2` (stereo not drawn) the value was 235 to 238 °C; for `COc1ccc(CONC(=O)[C@@H](C(C)C)N(Cc2cccnc2)S(=O)(=O)c2ccc(OC)cc2)cc1`, 45 to 53 °C.

The molecule `Cc1nn(-c2ccccn2)cc1COc1ccc(CCC(=O)O)cc1` came in with a melting point of 129 to 130 °C. `COC(=O)N1C(=S)NC(C)=C(C(=O)OC(C)C)C1c1cccc([N+](=O)[O-])c1` (stereo not drawn) showed a melting point of 130 to 132 °C.

For the molecule `COc1ccc(-c2nc(S(=O)(=O)c3nccs3)[nH]c2-c2ccc(OC)cc2)cc1`, the melting point was 219 °C. Next, `N#Cc1cnc(Nc2ccc(CCn3ccnc3)cc2)nc1-c1ccccc1`: 210 to 211 °C; `CC(C)(C)OC(=O)c1nc(-c2ccc([N+](=O)[O-])cc2)[nH]c1-c1ccncc1`: above 280 °C. Next, `CC(=O)N1CCC(NC(=O)Nc2cccc(C(F)(F)F)c2)CC1`: 212 to 217 °C. As to `CCN(CC)Cc1nc2cc(OC)c(OC)cc2c(-c2ccc(OC)c(OC)c2)c1Cl`, the melting point was in the range of 146 to 148 °C. In turn, `CN(C)c1cccc(NC(=O)c2cccc(S(=O)(=O)N3CCCCCC3)c2)c1` registered a melting point of 178 to 180 °C. Next, `O=C1NCc2c1cc1ccc3c(c1c2-c1ccncc1)OCO3`: 316 to 319 °C. For `CCOC(=O)N1CCC(O)(c2cccs2)CC1` the value was 242 °C; for `Cc1ccc2c(c1)CN(C)C(c1ccc(C(C)(C)C)cc1)C2` (stereo not drawn), 106 to 108 °C. For `CON=CC1=CCCN(C(=O)Oc2ccc(C(C)(C)CC(C)(C)C)cc2)C1` the value was 91 to 93 °C; for `Cc1ncc([N+](=O)[O-])n1CCOC(=O)Cc1ccccc1Nc1c(Cl)cccc1Cl`, 122 to 124 °C; for `CCS(=O)(=O)c1ccc(C2=C(c3ccc(S(C)(=O)=O)cc3)OC(C)(C)C2=O)cc1`, 198 to 203 °C. The molecule `COc1ccc(C(=O)N2CCN(Cc3ccccc3)c3ccccc32)cc1OC` yielded a melting point of 111 to 112 °C. As to `O=S(=O)(NCCN1CCOCC1)c1ccc(-c2n[nH]c3c2Cc2ccccc2-3)cc1`, the melting point fell in the range of 218 to 220 °C.

`NC(=O)c1cc(-c2ccccc2)n[nH]c1=O` came in with a melting point above 300 °C. The molecule `COc1c(C)cc(-c2cc(-c3cccnc3)c(N3CCOCC3)s2)nc1C` came in with a melting point of 139 to 140 °C.

With `CCN1C(=O)C2Cc3c([nH]c4ccccc34)C(c3ccc(N(C)C)cc3)N2C1=O` (stereo not drawn), the melting point was 262 to 265 °C. For `CCOC(=O)C(C)(C)Oc1ccc(CCNC(=O)C=Cc2ccccc2Cl)cc1` the value was 76 °C; for `CCOC(=O)c1cc(S(N)(=O)=O)c(Cl)cc1NCc1ccco1`, 163 to 165 °C; for `CC12C=CC(=O)C=C1C1OC1C1C2CCC2(C)C(=O)CCC12` (stereo not drawn), 182 to 194 °C. Molecule `Cc1c(C)c2c(c(C)c1N)CC(C)(CN1CCN(CCc3ccccc3)CC1)O2` (stereo not drawn) yielded a melting point of 99 to 100 °C. For the molecule `NC(=O)c1cccc2c3c(cc([N+](=O)[O-])c12)N(C(=O)C(F)(F)F)CC3CCl` (stereo not drawn), the melting point is 272 to 277 °C. Next, `CC(=O)c1cnc([N+](=O)[O-])n1C`: 81 to 83 °C. On to `COC(=O)c1ccc(OC)c(OC(C)(C)C)c1`, for which the melting point is 98 to 100 °C. Next, `CC(C)(C)OC(=O)N1CCN(CCOC(N)=O)CC1`: 135 to 136 °C. Consider `CCOP(=O)(OCC)c1cc2cc([N+](=O)[O-])c(Cl)cc2[nH]c1=O`, for which the melting point lay in the range of 258 to 262 °C. Next, `CC(C)C(NC(=O)C(C)(N)c1ccc2ccccc2c1)C(=O)Nc1nn(C(=O)OCc2ccccc2)c(=S)s1` (stereo not drawn): 125 to 132 °C.

Turning to `Cn1c(C#N)ccc1[N+](=O)[O-]`, the melting point is 86 to 87 °C. For `Cc1ccccc1COC(=O)c1ccc(C(=O)N2Cc3ccccc3Cc3ccccc32)cc1` the value was 140 to 142 °C; for `O=C1N[C@@H](C(=O)O)CCCCCC[C@@H]1CS` (relative stereo), 180 to 185 °C.

Take `COC1C(=O)NC=C1Cl` (stereo not drawn): the melting point lay within 96 to 98 °C. Next, `O=C(Nc1cc(C(=O)O)cc(C(=O)O)c1)Oc1ccccc1`: above 300 °C; `CCCn1c(=O)c2[nH]c(/C=C/c3ccc(O)c(OC)c3)nc2n(CCC)c1=O`: 243 to 245 °C. Next, `O=C1c2ccccc2C(=O)N1C1CCN(Cc2ccccc2)CC1`: 154 to 157 °C; `COC(=O)c1ccc(NC(=O)c2cc(C(C)C)c(C(C)C)s2)cc1OC`: 172 to 173 °C. For `COC(=O)CCC(=NO)c1ccccc1` the value was 76 to 77 °C. Consider `O=c1c2cnc(Cl)cc2[nH]c2ccnn12`, for which the melting point is above 300 °C. For `Cc1nc2ccc3c(c2o1)OC(CN1CC=C(c2ccccc2)CC1)CO3` (stereo not drawn) the value was 170 to 173 °C; for `COCCOc1cc(OCCOC)c2c(=O)[nH]c(-c3cc(C)nc(C)c3)nc2c1`, 150 to 151 °C. Next, `c1ccc(COc2cccc(Nc3nnc(Cc4ccncc4)c4ccccc34)c2)cc1`: 142 to 143 °C; `CCCCCCOc1ccc2c(COC)c(OCCCCCC)ccc2c1COC`: 103 to 104 °C; `O=C(Nc1ccc(Oc2ccnc(N3CCC4(CC3)OCCO4)n2)c2ccccc12)c1cc(F)cc(N2CCOCC2)c1`: 115 to 117 °C. Next, `CCN1C(=O)C(C)(C)C(=O)N(C)c2cc(CN(CCn3ccc4ccsc4c3=O)Cc3cnccc3C)ccc21`: 138 to 142 °C. `COC(=O)c1ccc(N=Cc2ccc(OC)c(C34CC5CC(CC(C5)C3)C4)c2)cc1` returned a melting point of 180 to 182 °C. The molecule `Cc1c(C)c2c(c(C)c1NC(=O)CC(C)(C)C)OCC2c1ccc(C(C)C)cc1` (stereo not drawn) yielded a melting point of 214 to 215 °C. For `COC(=O)Cn1c(=O)sc2cc(Br)c(Cl)cc21` the value was 209 to 210 °C; for `CCSCCNC(=O)Nc1ccccc1CCc1cc(C(C)(C)C)c(O)c(C(C)(C)C)c1`, 131 to 132 °C; for `O=Cc1ccc2c(c1)S(=O)(=O)c1ccccc1N2c1ccccc1`, 260 to 272 °C.

The molecule `CC(O)(CSc1ccc(F)cc1)C(=O)O` (stereo not drawn) gave a melting point of 73 to 75 °C. In the case of `O=Cc1c(Cl)n(C2OC(CF)C(O)C2O)c2cc(Cl)c(Cl)cc12` (stereo not drawn), the melting point fell in the range of 207 to 208 °C. For `Nc1cc(Oc2ccccc2)c([N+](=O)[O-])cc1Cl` the value was 122 to 124 °C; for `COC(=O)N1C2C3C=CC(C3OC(C)(C)C)C2N1C(=O)OC` (stereo not drawn), 86 °C; for `Cc1nc(-n2ccc3cc(O)ccc3c2=O)sc1C(=O)NCc1ccccc1`, 225 to 228 °C.

In turn, `COc1cc(OC)c(/C=C/S(=O)(=O)CS(=O)(=O)/C=C/c2c(OC)cc(OC)cc2OC)c(OC)c1` registered a melting point of 140 to 142 °C.
